Measured values taken from patent US11492385B2, “Long-acting co-agonists of the glucagon and GLP-1 receptors” (Merck Sharp & Dohme Corp., priority 2015, dated 2022).
Starred links: 1 amine or outer side, 2 acyl side, 3 side chain; linkers in the order of their positions; H or OH if unused. Non-standard residues stand in square brackets, D forms with d. Residues, ends and D or L forms follow the SMILES beside them. Groups on a side chain read outwards from the residue. *: point of attachment. Phe(4-CH2NH2) = NCc1ccc(C[C@H](N)C(=O)O)cc1; C18 diacid = O=C(O)CCCCCCCCCCCCCCCCC(=O)*; C16 diacid = O=C(O)CCCCCCCCCCCCCCC(=O)*; γGlu = O=C(O)[C@H](CCC(=O)[*:2])N[*:1]; Met(O2) = CS(=O)(=O)CC[C@H](N)C(=O)O; AEEA = NCCOCCOCC(=O)O; Aib = CC(C)(N)C(=O)O

Experiments:
human GCGR = target: T1, human GCGR (Homo sapiens, UniProt P47871); experiment: cAMP activity assay, cells expressing human GCGR; type: cell-based; settings: for EC50: cAMP production, cells expressing human GCGR, assay buffer with or without 20% human serum (not stated which), read-out: GCGR EC50 human; for hGCGR/hGLP1R (hTone): ratio of human GCGR EC50 to human GLP1R EC50
T1 construct: expressed in transfected cells; kept under Blasticidin and Hygromycin selection
In short: (§1)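 cAMP production in human GLP1R- or GCGR-expressing cells was read by luminescence after overnight dark incubation at room temperature. Peptides were given as 10-point DMSO dilution series, with native GLP-1 and glucagon as references. Four-parameter logistic fitting gave EC50.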

human GLP1R = target: T2, human GLP1R (Homo sapiens, UniProt P43220); experiment: cAMP activity assay, cells expressing human GLP1R; type: cell-based; settings: cAMP production, assay buffer with or without 20% human serum (not stated which)
T2 construct: expressed in transfected cells; kept under Blasticidin and Hygromycin selection
In short: as §1

T1 sequence (P47871 26-477): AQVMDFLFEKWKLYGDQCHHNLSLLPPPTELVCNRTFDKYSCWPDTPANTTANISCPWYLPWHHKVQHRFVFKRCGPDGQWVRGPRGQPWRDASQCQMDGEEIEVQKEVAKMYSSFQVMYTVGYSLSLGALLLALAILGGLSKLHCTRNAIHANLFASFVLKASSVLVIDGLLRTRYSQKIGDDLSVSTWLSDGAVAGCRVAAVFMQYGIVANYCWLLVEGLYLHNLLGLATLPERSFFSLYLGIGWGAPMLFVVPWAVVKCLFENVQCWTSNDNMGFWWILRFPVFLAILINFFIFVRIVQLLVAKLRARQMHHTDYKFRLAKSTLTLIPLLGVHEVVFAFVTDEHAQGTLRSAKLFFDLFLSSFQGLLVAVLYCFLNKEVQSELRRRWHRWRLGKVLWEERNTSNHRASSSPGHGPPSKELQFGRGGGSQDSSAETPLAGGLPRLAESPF
T2 sequence (P43220 24-463): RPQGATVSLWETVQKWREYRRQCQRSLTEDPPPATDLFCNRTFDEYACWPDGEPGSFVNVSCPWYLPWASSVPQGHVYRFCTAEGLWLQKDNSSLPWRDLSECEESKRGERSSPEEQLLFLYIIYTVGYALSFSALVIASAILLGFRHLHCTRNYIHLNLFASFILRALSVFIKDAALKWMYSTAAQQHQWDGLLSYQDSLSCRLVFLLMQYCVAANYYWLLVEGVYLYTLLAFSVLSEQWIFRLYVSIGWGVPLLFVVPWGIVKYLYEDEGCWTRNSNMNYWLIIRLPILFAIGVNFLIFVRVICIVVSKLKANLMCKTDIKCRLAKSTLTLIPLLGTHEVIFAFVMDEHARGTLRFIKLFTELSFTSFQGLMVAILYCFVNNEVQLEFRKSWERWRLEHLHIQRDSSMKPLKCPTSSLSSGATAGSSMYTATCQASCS

Row | EC50 (human GCGR) | hGCGR/hGLP1R (hTone) (human GCGR) | EC50 (human GLP1R) | Structure (SMILES)
1 | 0.44 nM | 9.24 | 0.05 nM | CC(C)C[C@H](NC(=O)[C@H](Cc1ccc(O)cc1)NC(=O)[C@H](CCCCN)NC(=O)[C@H](CO)NC(=O)[C@H](Cc1ccc(O)cc1)NC(=O)[C@H](CC(=O)O)NC(=O)[C@H](CO)NC(=O)[C@@H](NC(=O)[C@H](Cc1ccccc1)NC(=O)[C@@H](NC(=O)CNC(=O)[C@H](CCC(N)=O)NC(=O)C(C)(C)NC(=O)[C@@H](N)Cc1c[nH]cn1)[C@@H](C)O)[C@@H](C)O)C(=O)N[C@@H](CC(=O)O)C(=O)N[C@@H](CCC(=O)O)C(=O)N[C@@H](CCCNC(=N)N)C(=O)N[C@@H](C)C(=O)N[C@@H](C)C(=O)N[C@@H](CCC(N)=O)C(=O)N[C@@H](Cc1ccc(CNC(=O)COCCOCCNC(=O)COCCOCCNC(=O)CC[C@H](NC(=O)CCCCCCCCCCCCCCC(=O)O)C(=O)O)cc1)C(=O)N[C@@H](Cc1ccccc1)C(=O)N[C@H](C(=O)N[C@@H](CCC(N)=O)C(=O)N[C@@H](Cc1c[nH]c2ccccc12)C(=O)N[C@@H](CC(C)C)C(=O)N[C@@H](CC(C)C)C(=O)N[C@@H](CCCCN)C(=O)N[C@H](C(N)=O)[C@@H](C)O)C(C)C [compound 27] (H-H[Aib]QGTFTSDYSKYLDERAAQ[Phe(4-CH2NH2)]([AEEA-AEEA-γGlu-C16 diacid])FVQWLLKT-NH2)
2 | 0.43 nM | 3.11 | 0.14 nM | CC(C)C[C@H](NC(=O)[C@H](Cc1ccc(O)cc1)NC(=O)[C@H](CCCCN)NC(=O)[C@H](CO)NC(=O)[C@H](Cc1ccc(CNC(=O)COCCOCCNC(=O)COCCOCCNC(=O)CC[C@H](NC(=O)CCCCCCCCCCCCCCCCC(=O)O)C(=O)O)cc1)NC(=O)[C@H](CC(=O)O)NC(=O)[C@H](CO)NC(=O)[C@@H](NC(=O)[C@H](Cc1ccccc1)NC(=O)[C@@H](NC(=O)CNC(=O)[C@H](CCC(N)=O)NC(=O)C(C)(C)NC(=O)[C@@H](N)Cc1c[nH]cn1)[C@@H](C)O)[C@@H](C)O)C(=O)N[C@@H](CC(=O)O)C(=O)N[C@@H](C)C(=O)N[C@@H](CCCNC(=N)N)C(=O)N[C@@H](C)C(=O)N[C@@H](C)C(=O)N[C@@H](CCC(N)=O)C(=O)N[C@@H](CC(=O)O)C(=O)N[C@@H](Cc1ccccc1)C(=O)N[C@H](C(=O)N[C@@H](CCC(N)=O)C(=O)N[C@@H](Cc1c[nH]c2ccccc12)C(=O)N[C@@H](CC(C)C)C(=O)N[C@@H](CCS(C)(=O)=O)C(=O)N[C@@H](CC(=O)O)C(=O)N[C@H](C(N)=O)[C@@H](C)O)C(C)C [compound 28] (H-H[Aib]QGTFTSD[Phe(4-CH2NH2)]([AEEA-AEEA-γGlu-C18 diacid])SKYLDARAAQDFVQWL[Met(O2)]DT-NH2)
3 | 0.79 nM | 2.93 | 0.27 nM | CC(C)C[C@H](NC(=O)[C@H](Cc1ccc(O)cc1)NC(=O)[C@H](CCCCN)NC(=O)[C@H](CO)NC(=O)[C@H](Cc1ccc(O)cc1)NC(=O)[C@H](CC(=O)O)NC(=O)[C@H](CO)NC(=O)[C@@H](NC(=O)[C@H](Cc1ccccc1)NC(=O)[C@@H](NC(=O)CNC(=O)[C@H](CCC(N)=O)NC(=O)C(C)(C)NC(=O)[C@@H](N)Cc1c[nH]cn1)[C@@H](C)O)[C@@H](C)O)C(=O)N[C@@H](CC(=O)O)C(=O)N[C@@H](C)C(=O)N[C@@H](CCCNC(=N)N)C(=O)N[C@@H](C)C(=O)N[C@@H](C)C(=O)N[C@@H](CCCCNC(=O)COCCOCCNC(=O)COCCOCCNC(=O)CC[C@H](NC(=O)CCCCCCCCCCCCCCCCC(=O)O)C(=O)O)C(=O)N[C@@H](CC(=O)O)C(=O)N[C@@H](Cc1ccccc1)C(=O)N[C@H](C(=O)N[C@@H](CCC(N)=O)C(=O)N[C@@H](Cc1c[nH]c2ccccc12)C(=O)N[C@@H](CC(C)C)C(=O)N[C@@H](CCS(C)(=O)=O)C(=O)N[C@@H](CC(=O)O)C(=O)N[C@H](C(N)=O)[C@@H](C)O)C(C)C [compound 29] (H-H[Aib]QGTFTSDYSKYLDARAAK([AEEA-AEEA-γGlu-C18 diacid])DFVQWL[Met(O2)]DT-NH2; N-terminus assumed)
